Test results published in patent US20100298141A1, “SUBSTITUTED PYRIDINE N-OXIDE HERBICIDES” (E. I. DU PONT DE NEMOURS AND COMPANY, priority 2007, published 2010).

Legend:
velvetleaf [1] = experiment: Test C pre-/postemergence test; format: in vivo, Abutilon theophrasti; settings: for Plant response rating, Velvetleaf: 31 g ai/ha, scale 0 to 100 (0 no effect, 100 complete control)
How it was run: (§1)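 Seeds were planted and treated preemergence with test chemical in a non-phytotoxic solvent mixture containing surfactant. Postemergence applications of the same formulation went onto plants 2 to 18 cm tall (1- to 4-leaf stage). A dash marks no test result.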

woolly cupgrass = experiment: Test C pre-/postemergence test; format: in vivo, Eriochloa villosa; settings: for Plant response rating, Cupgrass, Woolly: 31 g ai/ha, scale 0 to 100 (0 no effect, 100 complete control)
How it was run: as §1

barnyardgrass [2] = experiment: Test A pre-/postemergence greenhouse test; format: in vivo, Echinochloa crus-galli; settings: for Plant response rating, Barnyardgrass: 0 to 100 scale where 0 is no effect and 100 is complete control; for Barnyardgrass plant response rating: 0 to 100 scale
How it was run: (§2)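 Each test compound, dissolved in a non-phytotoxic solvent mixture with surfactant, was sprayed directly onto seeded soil (loam/sand blend) and, at the same moment, onto seedlings carrying one to two leaves. Around ten greenhouse days later, plants were rated visually for injury relative to untreated controls.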

green foxtail = experiment: Test C pre-/postemergence test; format: in vivo, Setaria viridis; settings: for Plant response rating, Foxtail, Green: 31 g ai/ha, scale 0 to 100 (0 no effect, 100 complete control)
How it was run: as §1

giant foxtail = experiment: Test A pre-/postemergence greenhouse test; format: in vivo, Setaria faberi; settings: for Plant response rating, Foxtail, Giant: 0 to 100 scale where 0 is no effect and 100 is complete control; for Foxtail, Giant plant response rating: 0 to 100 scale
How it was run: as §2

crabgrass = experiment: Test A pre-/postemergence greenhouse test; format: in vivo, Digitaria sanguinalis; settings: for Plant response rating, Crabgrass, Large: 0 to 100 scale where 0 is no effect and 100 is complete control; for Crabgrass, Large plant response rating: 0 to 100 scale
How it was run: as §2

barnyardgrass [3] = experiment: Test C flooded paddy test; format: in vivo, Echinochloa crus-galli; settings: Flood
How it was run: (§3)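 In-water treatment: compound dosed into 3 cm flood over soil, water level unchanged throughout. Controls run alongside; visual assessment at day 13–15.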

downy brome = experiment: Test C pre-/postemergence test; format: in vivo, Bromus tectorum; settings: for Plant response rating, Bromegrass, Downy: 31 g ai/ha, scale 0 to 100 (0 no effect, 100 complete control)
How it was run: as §1

common ragweed = experiment: Test C pre-/postemergence test; format: in vivo, Ambrosia elation; settings: for Plant response rating, Ragweed: 31 g ai/ha, scale 0 to 100 (0 no effect, 100 complete control)
How it was run: as §1

velvetleaf [4] = experiment: Test A pre-/postemergence greenhouse test; format: in vivo, Abutilon theophrasti; settings: for Plant response rating, Velvetleaf: 0 to 100 scale where 0 is no effect and 100 is complete control; for Velvetleaf plant response rating: 0 to 100 scale
How it was run: as §2

Surinam grass = experiment: Test C pre-/postemergence test; format: in vivo, Brachiaria decumbens; settings: for Plant response rating, Surinam Grass: 31 g ai/ha, scale 0 to 100 (0 no effect, 100 complete control)
How it was run: as §1

soybean = experiment: Test C pre-/postemergence test; format: in vivo, Glycine max; settings: for Plant response rating, Soybean: 31 g ai/ha, scale 0 to 100 (0 no effect, 100 complete control)
How it was run: as §1

duck salad = experiment: Test C flooded paddy test; format: in vivo, Heteranthera limosa; settings: Flood
How it was run: as §3

blackgrass = experiment: Test C pre-/postemergence test; format: in vivo, Alopecurus myosuroides; settings: for Plant response rating, Blackgrass: 31 g ai/ha, scale 0 to 100 (0 no effect, 100 complete control)
How it was run: as §1

pigweed = experiment: Test C pre-/postemergence test; format: in vivo, Amaranthus retroflexus; settings: for Plant response rating, Pigweed: 31 g ai/ha, scale 0 to 100 (0 no effect, 100 complete control)
How it was run: as §1

lambsquarters = experiment: Test C pre-/postemergence test; format: in vivo, Chenopodium album; settings: for Plant response rating, Lambsquarters: 31 g ai/ha, scale 0 to 100 (0 no effect, 100 complete control)
How it was run: as §1

catchweed bedstraw = experiment: Test C pre-/postemergence test; format: in vivo, Galium aparine; settings: for Plant response rating, Galium: 31 g ai/ha, scale 0 to 100 (0 no effect, 100 complete control)
How it was run: as §1

[5] = 62 g ai/ha, Preemergence, scale 0 to 100
[6] = 125 g ai/ha, preemergence, scale 0 (no effect) to 100 (complete control)
[7] = preemergence, 250 g ai/ha, scale 0 (no effect) to 100 (complete control)
[8] = Postemergence, 500 g ai/ha, 0 is no effect, 100 is complete control
[9] = Preemergence, 125 g ai/ha, 0 no effect, 100 complete control
[10] = 62 g ai/ha, scale 0 to 100, 0 no effect, 100 complete control, 13 to 15 days
[11] = 250 g ai/ha, scale 0 to 100, 0 no effect, 100 complete control, 13 to 15 days
[12] = 31 g ai/ha, scale 0 to 100 (0 no effect, 100 complete control)
[13] = 125 g ai/ha, scale 0 to 100, 0 no effect, 100 complete control, 13 to 15 days

Cn1nc(C(F)(F)F)c(C(Cl)S(=O)(=O)c2cccc[n+]2[O-])c1OC(F)F (stereo not drawn) [Compound 51]
80: Velvetleaf plant response rating (velvetleaf [1]; [7]) | Barnyardgrass plant response rating (barnyardgrass [2]; [8]) | Plant response rating, Ducksalad (duck salad; [11]) | Plant response rating, Blackgrass (blackgrass; Preemergence) | Plant response rating, Galium (catchweed bedstraw; Preemergence)
0: Velvetleaf plant response rating (velvetleaf [1]; [5]) | Plant response rating, Velvetleaf (velvetleaf [1]; Preemergence) | Plant response rating, Cupgrass, Woolly (woolly cupgrass; Preemergence) | Plant response rating, Barnyardgrass (barnyardgrass [3]; [10]) | Bromegrass, Downy plant response rating (downy brome; [5]) | Bromegrass, Downy plant response rating (downy brome; [6]) | Plant response rating, Bromegrass, Downy (downy brome; Preemergence) | Bromegrass, Downy plant response rating (downy brome; [7]) | Ragweed plant response rating (common ragweed; [5]) | Plant response rating, Ragweed (common ragweed; Preemergence) | Soybean plant response rating (soybean; [5]) | Soybean plant response rating (soybean; [6]) | Plant response rating, Soybean (soybean; Preemergence) | Soybean plant response rating (soybean; [7])
85: Foxtail, Green plant response rating (green foxtail; [5]) | Foxtail, Green plant response rating (green foxtail; [6]) | Ragweed plant response rating (common ragweed; [7]) | Plant response rating, Pigweed (pigweed; Preemergence) | Galium plant response rating (catchweed bedstraw; [5])
100: Cupgrass, Woolly plant response rating (woolly cupgrass; [7]) | Plant response rating, Barnyardgrass (barnyardgrass [2]; Preemergence, 500 g ai/ha) | Foxtail, Green plant response rating (green foxtail; [7]) | Foxtail, Giant plant response rating (giant foxtail; [9]) | Plant response rating, Foxtail, Giant (giant foxtail; Preemergence, 500 g ai/ha) | Surinam Grass plant response rating (Surinam grass; [7]) | Blackgrass plant response rating (blackgrass; [7]) | Pigweed plant response rating (pigweed; [5]) | Pigweed plant response rating (pigweed; [6]) | Pigweed plant response rating (pigweed; [7]) | Lambsquarters plant response rating (lambsquarters; [5]) | Lambsquarters plant response rating (lambsquarters; [6]) | Plant response rating, Lambsquarters (lambsquarters; Preemergence) | Lambsquarters plant response rating (lambsquarters; [7])
30: Ragweed plant response rating (common ragweed; [6])
90: Cupgrass, Woolly plant response rating (woolly cupgrass; [6]) | Barnyardgrass plant response rating (barnyardgrass [2]; [9]) | Foxtail, Giant plant response rating (giant foxtail; [8]) | Crabgrass, Large plant response rating (crabgrass; [8]) | Plant response rating, Crabgrass, Large (crabgrass; Preemergence, 500 g ai/ha) | Blackgrass plant response rating (blackgrass; [5]) | Blackgrass plant response rating (blackgrass; [6])
60: Plant response rating, Crabgrass, Large (crabgrass; Postemergence, 125 g ai/ha) | Plant response rating, Velvetleaf (velvetleaf [4]; Postemergence, 125 g ai/ha) | Velvetleaf plant response rating (velvetleaf [4]; [9])
35: Plant response rating, Ducksalad (duck salad; [10])
10: Surinam Grass plant response rating (Surinam grass; [5]) | Plant response rating, Surinam Grass (Surinam grass; Preemergence)
65: Plant response rating, Foxtail, Green (green foxtail; Preemergence)
98: Surinam Grass plant response rating (Surinam grass; [6])
50: Velvetleaf plant response rating (velvetleaf [1]; [6]) | Plant response rating, Barnyardgrass (barnyardgrass [2]; Postemergence, 125 g ai/ha) | Plant response rating, Foxtail, Giant (giant foxtail; Postemergence, 125 g ai/ha) | Plant response rating, Barnyardgrass (barnyardgrass [3]; [11])
70: Cupgrass, Woolly plant response rating (woolly cupgrass; [5]) | Crabgrass, Large plant response rating (crabgrass; [9]) | Velvetleaf plant response rating (velvetleaf [4]; [8]) | Plant response rating, Velvetleaf (velvetleaf [4]; Preemergence, 500 g ai/ha)
95: Galium plant response rating (catchweed bedstraw; [6]) | Galium plant response rating (catchweed bedstraw; [7])

Cn1nc(C(F)(F)F)c(C[S+]([O-])c2ccc(F)c[n+]2[O-])c1Cl (stereo not drawn) [Compound 54]
50: Blackgrass plant response rating (blackgrass; [5])
65: Plant response rating, Barnyardgrass (barnyardgrass [3]; [13])
0: Velvetleaf plant response rating (velvetleaf [1]; [5]) | Plant response rating, Velvetleaf (velvetleaf [1]; Preemergence) | Plant response rating, Barnyardgrass (barnyardgrass [3]; [12]) | Bromegrass, Downy plant response rating (downy brome; [5]) | Plant response rating, Bromegrass, Downy (downy brome; Preemergence) | Ragweed plant response rating (common ragweed; [5]) | Plant response rating, Ragweed (common ragweed; Preemergence) | Plant response rating, Soybean (soybean; Preemergence) | Plant response rating, Ducksalad (duck salad; [12]) | Plant response rating, Ducksalad (duck salad; [10]) | Plant response rating, Ducksalad (duck salad; [13]) | Plant response rating, Blackgrass (blackgrass; Preemergence) | Plant response rating, Pigweed (pigweed; Preemergence) | Plant response rating, Lambsquarters (lambsquarters; Preemergence) | Galium plant response rating (catchweed bedstraw; [5]) | Plant response rating, Galium (catchweed bedstraw; Preemergence)
98: Cupgrass, Woolly plant response rating (woolly cupgrass; [7])
30: Velvetleaf plant response rating (velvetleaf [4]; [9])
100: Surinam Grass plant response rating (Surinam grass; [6]) | Surinam Grass plant response rating (Surinam grass; [7]) | Pigweed plant response rating (pigweed; [5]) | Pigweed plant response rating (pigweed; [6]) | Pigweed plant response rating (pigweed; [7]) | Lambsquarters plant response rating (lambsquarters; [6]) | Lambsquarters plant response rating (lambsquarters; [7])
5: Velvetleaf plant response rating (velvetleaf [1]; [6]) | Ragweed plant response rating (common ragweed; [6])
55: Plant response rating, Surinam Grass (Surinam grass; Preemergence)
90: Plant response rating, Barnyardgrass (barnyardgrass [2]; Preemergence, 500 g ai/ha) | Plant response rating, Foxtail, Giant (giant foxtail; Preemergence, 500 g ai/ha) | Plant response rating, Crabgrass, Large (crabgrass; Preemergence, 500 g ai/ha) | Surinam Grass plant response rating (Surinam grass; [5]) | Lambsquarters plant response rating (lambsquarters; [5])
70: Plant response rating, Barnyardgrass (barnyardgrass [2]; Postemergence, 125 g ai/ha) | Velvetleaf plant response rating (velvetleaf [4]; [8]) | Plant response rating, Velvetleaf (velvetleaf [4]; Preemergence, 500 g ai/ha)
85: Velvetleaf plant response rating (velvetleaf [1]; [7]) | Cupgrass, Woolly plant response rating (woolly cupgrass; [5]) | Plant response rating, Cupgrass, Woolly (woolly cupgrass; Preemergence) | Plant response rating, Ducksalad (duck salad; [11]) | Blackgrass plant response rating (blackgrass; [7]) | Galium plant response rating (catchweed bedstraw; [6]) | Galium plant response rating (catchweed bedstraw; [7])
95: Cupgrass, Woolly plant response rating (woolly cupgrass; [6]) | Foxtail, Green plant response rating (green foxtail; [5]) | Foxtail, Green plant response rating (green foxtail; [6]) | Foxtail, Green plant response rating (green foxtail; [7])
80: Barnyardgrass plant response rating (barnyardgrass [2]; [8]) | Barnyardgrass plant response rating (barnyardgrass [2]; [9]) | Foxtail, Giant plant response rating (giant foxtail; [8]) | Foxtail, Giant plant response rating (giant foxtail; [9]) | Crabgrass, Large plant response rating (crabgrass; [8]) | Crabgrass, Large plant response rating (crabgrass; [9]) | Plant response rating, Barnyardgrass (barnyardgrass [3]; [11])
20: Plant response rating, Crabgrass, Large (crabgrass; Postemergence, 125 g ai/ha) | Plant response rating, Barnyardgrass (barnyardgrass [3]; [10])
60: Plant response rating, Foxtail, Green (green foxtail; Preemergence) | Plant response rating, Foxtail, Giant (giant foxtail; Postemergence, 125 g ai/ha) | Bromegrass, Downy plant response rating (downy brome; [7]) | Soybean plant response rating (soybean; [7])
10: Bromegrass, Downy plant response rating (downy brome; [6]) | Ragweed plant response rating (common ragweed; [7]) | Plant response rating, Velvetleaf (velvetleaf [4]; Postemergence, 125 g ai/ha)
